According to US6372756B1, “Epimorphian compound and its use” (AvMax, Inc., priority 1998, dated 2002):
Read-outs that look alike come from different tables or passages of the source.

How the values were obtained:
[1] = test system: Lymphocyte proliferation; details: in vitro; cited from earlier work
[2] = test system: human liver microsomes; test: Incubation of sinomenine with human liver microsomes and NADPH generating system, HPLC/UV; type: in vitro ADME
Method: The livers of male Sprague Dawley rats, treated with dexamethasone for two days, and human liver specimens provided the sources for the starting material. Liver microsomes were prepared using standard centrifugation techniques as described by Guengerich (Guengerich, F. P., et al., Microsomal Enzymes Involved in Toxicology-Analysis and Separation, In: Principles and Methods in Toxicology (Ed. Hayes A W), pp. 609-637, Raven Press, New York, (1982)) with some modifications. Specifically, phosphate buffer was used instead of TRIS buffer and microsomes were stored at −80° C. The protein concentration was determined using a bicinchoninic acid assay (Redingbaugh, M. G., et al., Adaptation of the Bicinchoninic Acit Protein Assay for Use With Microtiter Plates and Sucrose Gradient Fractions, Anal. Biochem., 153:267-271, (1986)) and adjusted with 0.1 M potassium phosphate buffer, pH 7.4, to 3 g/l. […]
The presence of sinomenine and N-demethyl-sinomenine over time in the presence of microsomes and an NADPH generating solution were determined by HPLC and ultraviolet (UV) analysis. […]
For the HPLC analysis, a 250×4 mm analytical column was prepared with endcapped C18 material of 5 μm particle size. […] Sinomenine and its metabolites were detected with a UV wavelength of 234 nm. […]

[3] = test system: interleukin-2 (IL-2) synthesis in OKT3-stimulated PBMCs; test: OKT3-stimulated human peripheral blood mononuclear cell assay, IL-2 secretion by ELISA; type: cell-based; details: for IC50: OKT3 (1 μg/l) for 14 hours, curve fit, three independent experiments, read-out: IC50 of inhibition of IL-2 synthesis
Method: In an OKT3-stimulated human peripheral blood mononuclear cell assay, the relative biological activities of sinomenine and N-demethyl-sinomenine were tested.
The OKT3-stimulated human peripheral blood mononuclear cell assay was performed as described in Liu, L. et al., Inhibition of Lymphocyte Proliferation by the Anti-Arthritic Drug Sinomenine, Int. J. Immunopharmac., 16(8):685-691, (1994). Human Peripheral Blood Mononuclear Cells (PBMCS) were isolated from heparinized blood drawn from healthy adults. After separation from other blood components by density gradient centrifugation on Ficoll-hypaque (Biochrom, Berlin, Germany), the PBMCs were suspended in RPMI 1640 medium/10%FCS (RPMI 1640 medium with L-glutamine and nonessential amino acids: Gibco (Eggenstein, Germany); fetal calf serum (FCS): PAA Biologics (Marburg, Germany)).
The PBMCs (10^5 cells in a total volume of 150 μl per well) were activated by incubation with the monoclonal anti-T-cell receptor/CD3 complex antibody OKT3 (1 μg/l) for 14 hours. During this incubation, either sinomenine or N-demethyl-sinomenine was present in each of the main experimental wells at concentrations ranging from 10^−8 to 10^−3 M, as indicated on the x-axes of the graphs of FIGS. 10A and 10B. Control wells containing neither sinomenine nor its major metabolite were also prepared. The concentration of secreted IL-2 in the supernatants of activated PBMCs was determined using a commercial ELISA kit (Immunotech, Hamburg, Germany) following the manufacturer's instructions. In each of FIGS. 10A-B, the mean and standard error of three independent experiments are shown.
FIG. 10A presents the results for inhibition of IL-2 secretion by sinomenine. The concentration of IL-2 production, as a percentage of the control (100% equalled 1135 pg/ml, in this instance), was plotted against the molar concentration of sinomenine for each data point. The curves depicted were generated by a curve fit computer program (Microcal Origin Version 3.5). […]

[4] = in vivo; cited from earlier work
[5] = Water solubility inferred from retention on lipophilic reversed-phase HPLC column; type: physicochemical; details: evidenced by shorter retention time on lipophilic reversed-phase HPLC column
Excerpt: This characteristic of the novel compound results in a different oral bioavailability, pharmacokinetic profile, and organ distribution pattern than the known compound and also leads to ease in creating formulations for therapeutic use.
An HPLC system was also used for analysis of the sinomenine metabolism end products. For analytical HPLC, sinomenine and its metabolites were separated on a 250×4 mm LiChroCart column filled with endcapped Supersphere RP-18 material of 5 μm particle size and 100 Å pore width (Merck, Darmstadt, Germany).
The metabolite was prepared as described in Example 1. The samples were centrifuged (2000 g, 2 minutes) and 100 μl of the supernatant was injected into the analytical HPLC system. A control sample was prepared by the method described in Example 1 except that sinomenine and liver microsomes were incubated with an equal amount of phosphate buffer instead of with the NADPH generating solution. An HPLC run of the control sample was also made. The flow rate for the HPLC was set at 1 ml/min and the UV detection wavelength was 234 nm. The analytical column was kept at room temperature.
Sinomenine and its metabolites were isocratically eluted from the column with a mobile phase of 9.0/9.0/12.0/70.0 v/v/v/v methanol/acetonitrile/0.2 M sodium acetate/water, pH 5.5. The various fractions were quantified based on an external sinomenine calibration curve. […]

[6] = In vivo sinomenine metabolism, mouse urine; parameters: species or system MRL-1 pr mice; details: sinomenine 100 mg/kg intraperitoneally, urine collected over 24 hours
Method: (§1) More particularly, to study its metabolism in vivo, sinomenine was injected intraperitoneally into female Lewis rats at a concentration of 150 mg/kg body weight. Blood was taken after 30 minutes from the rat tail vein and plasma samples were prepared from the blood samples via standard techniques. In a parallel study, MRL-1 pr mice were injected intraperitoneally with either sinomenine at a concentration of 100 mg/kg body weight or physiological saline. Mouse urine was collected over a period of 24 hours.
(§2) The collected samples of rat blood and mouse urine from each of these studies were split so that testing could be performed immediately and after storage at −20° C. for one week. HPLC and GC/MS analysis was performed and there were no statistically significant differences in the results obtained from the immediately tested and the frozen samples.
(§3) A metabolite peak with the same relative retention time as the major metabolite isolated after incubation of sinomenine and NADPH generating solution with rat microsomes or human liver microsomes was obtained upon analysis of the rat blood and mouse urine samples. […] FIGS. 9A-B show HPLC chromatograms run on urine samples obtained from mice treated with saline (FIG. 9A) or with sinomenine (FIG. 9B). […]

[7] = In vivo sinomenine metabolism, rat plasma; parameters: species or system female Lewis rats; details: sinomenine 150 mg/kg intraperitoneally, blood after 30 minutes
Method: as §1, §2, §3

Row | SMILES | effect on lymphocyte proliferation [1] | amounts of sinomenine and its major metabolite ([2]; 120 minutes after the start of the reaction, human liver microsomes) | IC50 ([3]; Homo sapiens, PBMC) [µM] | side effects [4] | water solubility relative to sinomenine [5] | share of all sinomenine metabolic products ([2]; believed to represent) | IC50 [3] [µM] | biological activity (IL-2 inhibition IC50) relative to sinomenine ([3]; same assay, relative to sinomenine) | detection as metabolite in urine [6] | detection as metabolite in plasma [7]
1 | COC1=C[C@@H]2[C@@H]3Cc4ccc(OC)c(O)c4[C@]2(CCN3C)CC1=O [sinomenine, reference compound] | inhibited by sinomenine in a reversible manner without exhibiting direct cytotoxic effects | approximately equal amounts | 100 | minor side effects such as mild pain, cough, and diarrhea |  |  |  |  |  | 
2 | COC1=C[C@H]2[C@H]3Cc4ccc(OC)c(O)c4[C@@]2(CCN3)CC1=O [N-demethyl-sinomenine] |  |  |  |  | greater water solubility | approximately 90% | 20 | approximately five | detected as a metabolite | detected as a metabolite
